Some results are limits rather than exact numbers.

Data set [1] deals with adult male mice (CD-1). Type of data set: in vivo. The procedure: (§1) For this purpose, adult male mice (CD-1) were used. Two experiments were performed to test polymyxin B effectiveness: polymyxin B was administered concomitantly with α-amanitin and four hours after administration of α-amanitin. Concomitant therapy consisted of 0.33 mg/kg of α-amanitin followed by 2.5 mg/kg of polymyxin B (one administration). In the second experiment, three 2.5 mg/kg administrations of polymyxin B were used in different time-points [4, 8 and 12 h, intraperitoneal (i.p.) administration] after one α-amanitin (dose 0.33 mg/kg i.p.) exposure, as to mimic the clinical scenario of late intoxication diagnosis; human intoxication is often only found hours later when symptoms become clinically relevant. […] Moreover 50% of animal exposed to polymyxin B 4, 8 and 12 h after α-amanitin survived […]. In order to validate and unveil some mechanisms involved, an acute study with the same doses and scheme was performed, with animals being sacrificed 24 h after α-amanitin administration.
FIG. 1. Survival curves after concomitant i.p. administration of 0.33 mg/kg of α-amanitin and polymyxin B (Ama+Pol— 2.5 mg/kg) and 3 administrations of polymyxin B (Ama+Pol— 3×2.5 mg/kg) at different time-points (4, 8 and 12 h, i.p. administration) after one α-amanitin (dose 0.33 mg/kg i.p.). Results are expressed in percent survival. Control tests were performed (Control), consisting of a saline-control treatment. A polymyxin treatment (Pol) was additionally performed. A treatment with α-amanitin (Ama) as also made.
For this purpose, adult male mice (CD-1) were used. Two experiments were performed to test polymyxin B effectiveness: polymyxin B was administered concomitantly with α-amanitin and four hours after administration of α-amanitin. Concomitant therapy consisted of 0.33 mg/kg of α-amanitin followed by 2.5 mg/kg of polymyxin B (one administration). In the second experiment, three 2.5 mg/kg administrations of polymyxin B were used in different time-points (4, 8 and 12 h, i.p. administration) after one α-amanitin exposure (0.33 mg/kg i.p dose), as to mimic the clinical scenario of late intoxication diagnosis; human intoxication is often only found hours later when symptoms become clinically relevant. […] Moreover, 50% of animals exposed to polymyxin B 4, 8 and 12 h after α-amanitin survived (FIG. 1). In order to validate and unveil some mechanisms involved, an acute study with the same doses and scheme was performed with polymyxin B 4, 8 and 12 h after α-amanitin administration. Animals were sacrificed 24 h after α-amanitin administration. […] The renal corpuscles appearance is heterogeneous, with a wide capsular space, and thickened external Bowman capsule. […]

The subject of data set [2] is adult male mice (CD-1). Put plainly: Acute study, animals sacrificed 24 h after α-amanitin: plasma aminotransferases, liver and kidney histology. Type of data set: in vivo. The procedure:
as §1
FIG. 2. Plasma levels of Aspartate aminotransferase (AST) and alanine aminotransferase (ALT) in control, polymyxin B (3×2.5 mg/kg) (Pol), α-amanitin (Ama) and α-amanitin+polymyxin B (3×2.5 mg/kg) (Ama+Pol) groups. Results are presented as means±standard deviation (SD), and were obtained from 4-5 animals from each treatment. Statistical comparisons were made using Kruskal-Wallis ANOVA on Ranks followed by the Dunn's post hoc test (*p<0.05, Ama vs. control; #p<0.05, Ama vs. Ama+Pol).
FIG. 3. Liver histopathology by light microscopy. (A) Light micrograph (40×) from α-amanitin treated-group. The presence of cellular oedema (1), cytoplasmic vacuolization (2), interstitial inflammatory cell infiltration (3), as well as some necrotic zones can be seen (4). (B) Light micrograph (40×) from α-amanitin+polymixin B (3×2.5 mg/kg) group. […] Increase number interstitial inflammatory cell was still observed.
FIG. 4. Kidney histopathology by light microscopy (A) Light micrograph (10×) from α-amanitin-treated group. The presence of cytoplasmatic vacuolization (5), renal corpuscles with a wide capsular space, and thickened external Bowman capsule (6), as well as some necrotic zones can be seen (7). The presence large amounts of fibrin-related material cause enlargement and obstruction of distal tubules (8). (B) Light micrograph (10×) from α-amanitin+polymixin B (3×2.5 mg/kg) group.
For this purpose, adult male mice (CD-1) were used. Two experiments were performed to test polymyxin B effectiveness: polymyxin B was administered concomitantly with α-amanitin and four hours after administration of α-amanitin. Concomitant therapy consisted of 0.33 mg/kg of α-amanitin followed by 2.5 mg/kg of polymyxin B (one administration). In the second experiment, three 2.5 mg/kg administrations of polymyxin B were used in different time-points (4, 8 and 12 h, i.p. administration) after one α-amanitin exposure (0.33 mg/kg i.p dose), as to mimic the clinical scenario of late intoxication diagnosis; human intoxication is often only found hours later when symptoms become clinically relevant. […] Moreover, 50% of animals exposed to polymyxin B 4, 8 and 12 h after α-amanitin survived (FIG. 1). In order to validate and unveil some mechanisms involved, an acute study with the same doses and scheme was performed with polymyxin B 4, 8 and 12 h after α-amanitin administration. Animals were sacrificed 24 h after α-amanitin administration. […] The renal corpuscles appearance is heterogeneous, with a wide capsular space, and thickened external Bowman capsule. […] Marked atrophy and degeneration of distal tubules cells was also observed, and large amounts of fibrin-related material caused enlargement and obstruction of these tubules.

[3] abbreviates: 24 h after α-amanitin 0.33 mg/kg i.p., polymyxin B 3×2.5 mg/kg at 4, 8 and 12 h.
[4] abbreviates: 24 h after α-amanitin 0.33 mg/kg i.p., polymyxin B 3×2.5 mg/kg at 4, 8 and 12 h, listed as polymixin B.

In the case of `CC[C@H](C)[C@@H]1NC(=O)CNC(=O)[C@@H]2Cc3c([nH]c4cc(O)ccc34)[S@+]([O-])C[C@H](NC(=O)CNC1=O)C(=O)N[C@@H](CC(N)=O)C(=O)N1C[C@H](O)C[C@H]1C(=O)N[C@@H]([C@@H](C)[C@@H](O)CO)C(=O)N2` [α-amanitin], in the data set with adult male mice (CD-1) [1] (single dose of α-amanitin 0.33 mg/kg i.p., no antidote), the “day until which all animals died” value was not above 5 days.
As for polymyxin B, in the data set with adult male mice (CD-1) [2] (setting [3]), the “kidney histology (light microscopy)” value was “protected against the occurrence of the above referred alterations, particularly the necrosis and the obstruction of distal tubules”; the “liver histology (light microscopy)” value was “significant reversion against α-amanitin-induced necrotic changes as well as the induced oedema and cytoplasmic vacuolization”; the “plasma aminotransferases (AST, ALT)” value is listed as “totally reverted”. Besides, in the data set with adult male mice (CD-1) [2] (setting [4]), the “kidney histology (light microscopy)” value is “oedema, cytoplasmatic vacuolization and necrosis, were significantly attenuated”; the “liver histology (light microscopy)” value is “oedema, cytoplasmatic vacuolization and necrosis, were significantly attenuated”. For the same compound, in the data set on adult male mice (CD-1) [2] (24 h after α-amanitin administration, same doses and scheme), the “hepatic and renal damage (histological and plasma data)” value was “protected against hepatic and renal damage caused by α-amanitin”. Besides, in the data set with adult male mice (CD-1) [1] (concomitant polymyxin B 2.5 mg/kg with α-amanitin 0.33 mg/kg, up to day 30), the “signs of injury or discomfort” value is on record as “without major signs of injury or discomfort”. Besides, in the data set with adult male mice (CD-1) [1] (polymyxin B 3×2.5 mg/kg i.p. at 4, 8 and 12 h after α-amanitin 0.33 mg/kg i.p.), the animals that survived came out at 50%. For the same compound, the “animals that survived until the 30th day” value in the data set on adult male mice (CD-1) [1] (α-amanitin 0.33 mg/kg i.p. followed by polymyxin B 2.5 mg/kg, one concomitant administration) was 100%.

These data come from patent publication US20180264074A1, “USE OF POLYMYXIN AS AN ANTIDOTE FOR INTOXICATIONS BY AMATOXINS” (UNIVERSIDADE DO PORTO, priority 2015, published 2018).
